Test results as given in PubChem BioAssay AID2060621 (Molecular Pharmacology Branch, DTP, NCI, 2025).
Where “and” joins values, the source holds several entries; their conditions need not be identical. Identical values can stand only once.

Tested on: 324938-238-R-J1-PDC complex spheroids viability
Assay: Anticancer human tumor 324938-238-R-J1-PDC patient-derived bladder carcinoma cell line growth inhibition [CLK]
Conditions: for viability, T/C: stronger effect = lower value
Method in brief: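 Patient-derived tumor cells grown as complex spheroids with HUVEC endothelial cells and mesenchymal stem cells, treated with drug combinations. Concentrations descend in half-log steps from near clinical Cmax, or from 10 microM if Cmax unknown.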

[1] = curve of first compound, second compound 0.0316 µM
[2] = curve of first compound, second compound 0.1 µM
[3] = curve of first compound, second compound 0.316 µM
[4] = curve of first compound, second compound 1 µM
[5] = curve of first compound, second compound 3.16 µM
[6] = curve of first compound, second compound 10 µM
[7] = second compound 0.0316 µM, first compound 0.0316 µM
[8] = second compound 0.0316 µM, first compound 0.1 µM
[9] = second compound 0.0316 µM, first compound 0.316 µM
[10] = second compound 0.0316 µM, first compound 1 µM
[11] = second compound 0.0316 µM, first compound 3.16 µM
[12] = second compound 0.0316 µM, first compound 10 µM
[13] = second compound 0.1 µM, first compound 0.0316 µM
[14] = second compound 0.1 µM, first compound 0.1 µM
[15] = second compound 0.1 µM, first compound 0.316 µM
[16] = second compound 0.1 µM, first compound 1 µM
[17] = second compound 0.1 µM, first compound 3.16 µM
[18] = second compound 0.1 µM, first compound 10 µM
[19] = second compound 0.316 µM, first compound 0.0316 µM
[20] = second compound 0.316 µM, first compound 0.1 µM
[21] = second compound 0.316 µM, first compound 0.316 µM
[22] = second compound 0.316 µM, first compound 1 µM
[23] = second compound 0.316 µM, first compound 3.16 µM
[24] = second compound 0.316 µM, first compound 10 µM
[25] = second compound 1 µM, first compound 0.0316 µM
[26] = second compound 1 µM, first compound 0.1 µM
[27] = second compound 1 µM, first compound 0.316 µM
[28] = second compound 1 µM, first compound 1 µM
[29] = second compound 1 µM, first compound 3.16 µM
[30] = second compound 1 µM, first compound 10 µM
[31] = second compound 3.16 µM, first compound 0.0316 µM
[32] = second compound 3.16 µM, first compound 0.1 µM
[33] = second compound 3.16 µM, first compound 0.316 µM
[34] = second compound 3.16 µM, first compound 1 µM
[35] = second compound 3.16 µM, first compound 3.16 µM
[36] = second compound 3.16 µM, first compound 10 µM
[37] = second compound 10 µM, first compound 0.0316 µM
[38] = second compound 10 µM, first compound 0.1 µM
[39] = second compound 10 µM, first compound 0.316 µM
[40] = second compound 10 µM, first compound 1 µM
[41] = second compound 10 µM, first compound 3.16 µM
[42] = second compound 10 µM, first compound 10 µM
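Further: viability read after seven days of drug exposure.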
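Wherever viability, T/C is given: 100% = DMSO vehicle control wells.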

In the case of `C#Cc1c(F)ccc2cc(O)cc(-c3ncc4c(N5CC6CCC(C5)N6)nc(OCC56CCCN5CC(F)C6)nc4c3F)c12` (stereo not drawn), the viability, T/C (compound 0.0316 µM) is reported as 80% and 86.4%, the viability, T/C (compound 0.1 µM) is reported as 69.2% and 79.7% and the viability, T/C (compound 0.316 µM) is reported as 56.7% and 70%. The viability, T/C (compound 1 µM) was 64.9% and 53.9%, the viability, T/C (compound 3.16 µM) was 48.4% and 41.9% and the viability, T/C (compound 10 µM) was 41.9% and 38%. For the same compound, the IC50 (curve of compound) was 2.92 µM and 1.47 µM.

`Nc1ccccc1NC(=O)c1ccc(CNC(=O)OCc2cccnc2)cc1` + CN1CCN(c2cc(C(=O)Nc3cc4cc(-c5cnn(C)c5)ccc4cn3)ccn2)CC1 was tested, and the IC50 [1] was 1.2 µM, the IC50 [2] was 0.173 µM and the IC50 [3] was < 0.0316 µM. The IC50 [4] was < 0.0316 µM, the IC50 [5] was < 0.0316 µM and the IC50 [6] was < 0.0316 µM. For the same compound, the viability, T/C [7] was 80.2%, the viability, T/C [8] was 88.1% and the viability, T/C [9] was 70.5%. It also gave a viability, T/C [10] of 52.5%, a viability, T/C [11] of 32.2% and a viability, T/C [12] of 14.2%. It also gave a viability, T/C [13] of 58.5%, a viability, T/C [14] of 50% and a viability, T/C [15] of 44.8%. It also gave a viability, T/C [16] of 39.6%, a viability, T/C [17] of 30.6% and a viability, T/C [18] of 7.44%. The viability, T/C [19] was 21.6%, the viability, T/C [20] was 26% and the viability, T/C [21] was 20.6%. It also gave a viability, T/C [22] of 21.1%, a viability, T/C [23] of 24.1% and a viability, T/C [24] of 0.19%. For the same compound, the viability, T/C [25] was 1.99%, the viability, T/C [26] was 3.65% and the viability, T/C [27] was 4%. The viability, T/C [28] was 2.6%, the viability, T/C [29] was 0.16% and the viability, T/C [30] was 0.13%. The viability, T/C [31] was 0.13%, the viability, T/C [32] was 0.14% and the viability, T/C [33] was 0.15%. It also gave a viability, T/C [34] of 0.1%, a viability, T/C [35] of 0.1% and a viability, T/C [36] of 0.16%. The viability, T/C [37] was 0.06%, the viability, T/C [38] was 0.13% and the viability, T/C [39] was 0.14%. For the same compound, the viability, T/C [40] was 0.13%, the viability, T/C [41] was 0.18% and the viability, T/C [42] was 0.2%.

For `O=c1[nH]cc(F)c(=O)[nH]1` + CNC(=O)c1ccc(Nc2nc(OC3CCCC3)c3c(-c4ccc5nc(C)oc5c4)c[nH]c3n2)c(OC)c1, the IC50 [1] was 0.256 µM, the IC50 [2] was < 0.0316 µM and the IC50 [3] was < 0.0316 µM. The IC50 [4] was < 0.0316 µM, the IC50 [5] was < 0.0316 µM and the IC50 [6] was < 0.0316 µM. For the same compound, the viability, T/C [7] was 80.6%, the viability, T/C [8] was 77.5% and the viability, T/C [9] was 43.5%. For the same compound, the viability, T/C [10] was 28.6%, the viability, T/C [11] was 22.2% and the viability, T/C [12] was 25.1%. The viability, T/C [13] was 25.2%, the viability, T/C [14] was 24% and the viability, T/C [15] was 23.8%. The viability, T/C [16] was 19.8%, the viability, T/C [17] was 15.7% and the viability, T/C [18] was 17.5%. For the same compound, the viability, T/C [19] was 19.6%, the viability, T/C [20] was 18.5% and the viability, T/C [21] was 16.2%. The viability, T/C [22] was 14.7%, the viability, T/C [23] was 14.3% and the viability, T/C [24] was 14.7%. The viability, T/C [25] was 16.1%, the viability, T/C [26] was 15.2% and the viability, T/C [27] was 15.4%. For the same compound, the viability, T/C [28] was 13.8%, the viability, T/C [29] was 10.5% and the viability, T/C [30] was 9.31%. For the same compound, the viability, T/C [31] was 15.3%, the viability, T/C [32] was 14.8% and the viability, T/C [33] was 14%. The viability, T/C [34] was 12.7%, the viability, T/C [35] was 11.2% and the viability, T/C [36] was 11.1%. The viability, T/C [37] was 17.8%, the viability, T/C [38] was 15.3% and the viability, T/C [39] was 15.1%. For the same compound, the viability, T/C [40] was 16.6%, the viability, T/C [41] was 12.6% and the viability, T/C [42] was 10.3%.

With `COc1ccc([C@@H](O)c2cc(-c3ncnc4cc(N5CCOCC5)ccc34)c(F)cc2Cl)nn1` + CNC(=O)c1ccc(Nc2nc(OC3CCCC3)c3c(-c4ccc5nc(C)oc5c4)c[nH]c3n2)c(OC)c1 the IC50 [1] was 3.77 µM, the IC50 [2] was < 0.0316 µM and the IC50 [3] was < 0.0316 µM. For the same compound, the IC50 [4] was < 0.0316 µM, the IC50 [5] was < 0.0316 µM and the IC50 [6] was < 0.0316 µM. The viability, T/C [7] was 86.8%, the viability, T/C [8] was 76.4% and the viability, T/C [9] was 70.3%. The viability, T/C [10] was 63.5%, the viability, T/C [11] was 56.5% and the viability, T/C [12] was 35.9%. The viability, T/C [13] was 27.6%, the viability, T/C [14] was 26.3% and the viability, T/C [15] was 22.9%. It also gave a viability, T/C [16] of 28%, a viability, T/C [17] of 29% and a viability, T/C [18] of 22.7%. For the same compound, the viability, T/C [19] was 18.5%, the viability, T/C [20] was 20.5% and the viability, T/C [21] was 17.9%. It also gave a viability, T/C [22] of 16.5%, a viability, T/C [23] of 14.6% and a viability, T/C [24] of 16.1%. The viability, T/C [25] was 16%, the viability, T/C [26] was 14.5% and the viability, T/C [27] was 16%. For the same compound, the viability, T/C [28] was 14.8%, the viability, T/C [29] was 12.9% and the viability, T/C [30] was 11.2%. The viability, T/C [31] was 18.1%, the viability, T/C [32] was 14.2% and the viability, T/C [33] was 16.2%. The viability, T/C [34] was 14.7%, the viability, T/C [35] was 14.9% and the viability, T/C [36] was 9.35%. The viability, T/C [37] was 15.6%, the viability, T/C [38] was 16.7% and the viability, T/C [39] was 16.9%. It also gave a viability, T/C [40] of 16.8%, a viability, T/C [41] of 11.1% and a viability, T/C [42] of 12.1%.
